Measurements: ChEMBL document CHEMBL3885881, “DrugMatrix”

Organism: Rattus norvegicus
Assay: DrugMatrix - Regimen: Daily Repeat
Type: toxicity, organism-based, Sprague-Dawley
Design: regimen Daily Repeat, gender Male, age 6-8 weeks
Details: in vivo, po, 20 mg/kg, route oral GAVAGE, dose level Low, vehicle .5 % CMC; for ABSOLUTE BASOPHIL / ABSOLUTE EOSINOPHIL / ABSOLUTE LYMPHOCYTE / ABSOLUTE MONOCYTE / ABSOLUTE SEGMENTED NEUTROPHIL / BASOPHIL / EOSINOPHIL / ERYTHROCYTE COUNT / HEMATOCRIT / HEMOGLOBIN / LEUKOCYTE COUNT / LYMPHOCYTE / MEAN CORPUSCULAR HEMOGLOBIN / MEAN CORPUSCULAR HEMOGLOBIN CONCENTRATION / MEAN CORPUSCULAR VOLUME / MONOCYTE / NEUTROPHIL / NUCLEATED RED BLOOD CELLS / PLATELET COUNT: tissue Blood; for ALANINE AMINOTRANSFERASE / ALKALINE PHOSPHATASE / ASPARTATE AMINOTRANSFERASE / BLOOD UREA NITROGEN / CARBON DIOXIDE / CHLORIDE / CHOLESTEROL / CREATINE PHOSPHOKINASE / CREATININE / GLUCOSE / LACTATE DEHYDROGENASE / LIPASE / PHOSPHORUS / POTASSIUM / SODIUM / TOTAL BILIRUBIN / TOTAL PROTEIN / URIC ACID: tissue Plasma

O=C1CC2(CCCC2)CC(=O)N1CCCCN1CCN(c2ncccn2)CC1 [BUSPIRONE]
ABSOLUTE BASOPHIL (72 h, time 3 day): 0 CELLS/uL | ABSOLUTE EOSINOPHIL (72 h, time 3 day): 51 CELLS/uL | ABSOLUTE LYMPHOCYTE (72 h, time 3 day): 11615 CELLS/uL | ABSOLUTE MONOCYTE (72 h, time 3 day): 151.33 CELLS/uL | ABSOLUTE SEGMENTED NEUTROPHIL (72 h, time 3 day): 1416 CELLS/uL | BASOPHIL (72 h, time 3 day): 0% | EOSINOPHIL (72 h, time 3 day): 0.33% | ERYTHROCYTE COUNT (72 h, time 3 day): 5.69 x10E6/uL | HEMATOCRIT (72 h, time 3 day): 36.17% | HEMOGLOBIN (72 h, time 3 day): 14.1 G/DL | LEUKOCYTE COUNT (72 h, time 3 day): 13.23 x10E3/uL | LYMPHOCYTE (72 h, time 3 day): 87.67% | MEAN CORPUSCULAR HEMOGLOBIN (72 h, time 3 day): 24.73 pg | MEAN CORPUSCULAR HEMOGLOBIN CONCENTRATION (72 h, time 3 day): 39 G/DL | MEAN CORPUSCULAR VOLUME (72 h, time 3 day): 63.57 fL | MONOCYTE (72 h, time 3 day): 1% | NEUTROPHIL (72 h, time 3 day): 11% | NUCLEATED RED BLOOD CELLS (72 h, time 3 day): 0.33 /100WBC | PLATELET COUNT (72 h, time 3 day): 1072.33 x10E3/uL | ALANINE AMINOTRANSFERASE (72 h, time 3 day): 59.33 u/L | ALKALINE PHOSPHATASE (72 h, time 3 day): 480 u/L | ASPARTATE AMINOTRANSFERASE (72 h, time 3 day): 97 u/L | BLOOD UREA NITROGEN (72 h, time 3 day): 15 mg/dL | CARBON DIOXIDE (72 h, time 3 day): 23 mmol/L | CHLORIDE (72 h, time 3 day): 102 MEQ/L | CHOLESTEROL (72 h, time 3 day): 82.33 mg/dL | CREATINE PHOSPHOKINASE (72 h, time 3 day): 412 u/L | CREATININE (72 h, time 3 day): 0.23 mg/dL | GLUCOSE (72 h, time 3 day): 167 mg/dL | LACTATE DEHYDROGENASE (72 h, time 3 day): 304.33 u/L | LIPASE (72 h, time 3 day): 9 u/L | PHOSPHORUS (72 h, time 3 day): 13.47 mg/dL | POTASSIUM (72 h, time 3 day): 6.53 MEQ/L | SODIUM (72 h, time 3 day): 146.87 MEQ/L | TOTAL BILIRUBIN (72 h, time 3 day): 0.2 mg/dL | TOTAL PROTEIN (72 h, time 3 day): 6 G/DL | URIC ACID (72 h, time 3 day): 1.9 mg/dL | ABSOLUTE BASOPHIL (120 h, time 5 day): 0 CELLS/uL | ABSOLUTE EOSINOPHIL (120 h, time 5 day): 106.67 CELLS/uL | ABSOLUTE LYMPHOCYTE (120 h, time 5 day): 13027.67 CELLS/uL | ABSOLUTE MONOCYTE (120 h, time 5 day): 125.67 CELLS/uL | ABSOLUTE SEGMENTED NEUTROPHIL (120 h, time 5 day): 973.33 CELLS/uL | BASOPHIL (120 h, time 5 day): 0% | EOSINOPHIL (120 h, time 5 day): 0.67% | ERYTHROCYTE COUNT (120 h, time 5 day): 5.35 x10E6/uL | HEMATOCRIT (120 h, time 5 day): 34.23% | HEMOGLOBIN (120 h, time 5 day): 13.57 G/DL | LEUKOCYTE COUNT (120 h, time 5 day): 14.23 x10E3/uL | LYMPHOCYTE (120 h, time 5 day): 91.67% | MEAN CORPUSCULAR HEMOGLOBIN (120 h, time 5 day): 25.4 pg | MEAN CORPUSCULAR HEMOGLOBIN CONCENTRATION (120 h, time 5 day): 39.67 G/DL | MEAN CORPUSCULAR VOLUME (120 h, time 5 day): 64.03 fL | MONOCYTE (120 h, time 5 day): 1% | NEUTROPHIL (120 h, time 5 day): 6.67% | NUCLEATED RED BLOOD CELLS (120 h, time 5 day): 0 /100WBC | PLATELET COUNT (120 h, time 5 day): 1461 x10E3/uL | ALANINE AMINOTRANSFERASE (120 h, time 5 day): 42.33 u/L | ALKALINE PHOSPHATASE (120 h, time 5 day): 354 u/L | ASPARTATE AMINOTRANSFERASE (120 h, time 5 day): 77 u/L | BLOOD UREA NITROGEN (120 h, time 5 day): 14.67 mg/dL | CARBON DIOXIDE (120 h, time 5 day): 24.33 mmol/L | CHLORIDE (120 h, time 5 day): 102.33 MEQ/L | CHOLESTEROL (120 h, time 5 day): 67 mg/dL | CREATINE PHOSPHOKINASE (120 h, time 5 day): 241.33 u/L | CREATININE (120 h, time 5 day): 0.14 mg/dL | GLUCOSE (120 h, time 5 day): 154 mg/dL | LACTATE DEHYDROGENASE (120 h, time 5 day): 200.67 u/L | LIPASE (120 h, time 5 day): 8.33 u/L | PHOSPHORUS (120 h, time 5 day): 14.3 mg/dL | POTASSIUM (120 h, time 5 day): 7.16 MEQ/L | SODIUM (120 h, time 5 day): 144.93 MEQ/L | TOTAL BILIRUBIN (120 h, time 5 day): 0.23 mg/dL | TOTAL PROTEIN (120 h, time 5 day): 5.63 G/DL | URIC ACID (120 h, time 5 day): 1.97 mg/dL
